Data reported in publication PMC9822769, “The Strange Case: The Unsymmetric Cisplatin-Based Pt(IV) Prodrug [Pt(CH3COO)Cl2(NH3)2(OH)] Exhibits Higher Cytotoxic Activity with respect to Its Symmetric Congeners due to Carrier-Mediated Cellular Uptake” (Bioinorganic Chemistry and Applications, 2022).

What was measured:
[1] = test system: A2780 cells; assay: Cellular Pt accumulation (accumulation ratio, ICP-MS) in A2780 cells; assay type: cell-based, human; settings: A2780, 4 h CT, 10 μM
Description: A2780 and A2780cisR cells were seeded in 10 mm Petri dishes and challenged with complexes under investigation (10 μM) in a complete medium for 4 h. At the end of the exposure, cells were washed three times with PBS, detached from Petri dishes using 0.05% trypsin 1x + 2% EDTA (HyClone, Thermo Fisher), and harvested in a completely fresh medium. An automatic cell counting device (Countess®, Life Technologies) was used to measure the number and mean diameter of each cell necessary to calculate the mean cellular (spherical) volume.
For the analysis of Pt accumulation, cells were transferred to a borosilicate glass tube and centrifuged at 1100 rpm for 5 min at room temperature. The supernatant was carefully removed by aspiration, while approximately, 200 μL of the supernatant was left to limit cell loss. Cellular pellets were stored at −80°C until mineralization.
The determination of the platinum content was performed by ICP-MS (Thermo Optek X Series 2). Mineralization was carried out by adding 70% w/w HNO3 to each sample (after defrosting), followed by incubation for 1 h at 60°C in an ultrasonic bath. Before the ICP-MS measurement, HNO3 was diluted to a final concentration of 1%. The instrument settings were optimized to produce the highest platinum sensitivity, and the most abundant isotopes of Pt and In (used as an internal standard) were quantified at m/z 195 and 115, respectively.
The quantity of Pt found in cells and normalized on cell number (cellular Pt accumulation) was expressed as ng of Pt per 10^6 cells. The mean cellular volume, calculated from the actual mean cell diameter measured for each sample (about 12 μm), was used to obtain the volume of 10^6 cells and, finally, the intracellular Pt concentration. At treatment time zero, 100 μL of the medium was taken from each sample to verify the extracellular Pt concentration. The ratio between intracellular and the actual extracellular concentrations is defined as the accumulation ratio, AR [70]. The Pt content in the control experiment, which characterizes any possible Pt contamination during the overall process, was statistically insignificant with respect to the cellular Pt accumulated during treatment, even in the case of A2780cisR.
Experiments with the inhibitors were carried out at 37°C as follows: (i) NaN3 + 2-deoxy-D-glucose (2DG): preincubation for 30 min in PBS with 25 mM NaN3 and 25 mM 2DG, followed by a 10 μM CT with the Pt compounds in Earle's Balanced Salt Solution (EBSS) for 1 h; (ii) cimetidine (CMT): coincubation with 1.5 mM CMT and 10 μM Pt compounds in EBSS for 1 h; (iii) 1-methyl-4-phenylpyridin-1-ium (MPP^+): coincubation with 2.0 mM MPP^+ and 10 μM Pt compounds in EBSS for 1 h; (iv) cytochalasin D (CTD): preincubation for 30 min in EBSS with 10 μM CTD, followed by a 10 μM CT with the Pt compounds in EBSS for 1 h; (v) O-benzylserine (BS): coincubation with 1.0 mM BS and 10 μM Pt compounds in EBSS for 4 h; (vi) ouabain (OUA): preincubation for 1 h in EBSS with 1 mM OUA, followed by a 10 μM CT with the Pt compounds in EBSS for 4 h; (vii) tetraethylammonium chloride (TEA): preincubation for 1 h with 2.0 mM TEA followed by 10 μM Pt compounds in EBSS for 4 h. In the experiments at low temperature, A2780 cells were preincubated for 2 h at 4°C, followed by CT with each Pt compound (10 μM) for 4 h. In all cases, at the end of the CT, the cells were manipulated as described in the previous paragraphs.

[2] = test system: NT2-D1; assay: Resazurin reduction cell viability assay, NT2-D1; assay type: cell-based, human; settings: 72 h of treatment; mean ± sd
Description: (§1) The compounds under investigation were tested on a panel of commercial human cancer cell lines: ovarian endometrioid adenocarcinoma A2780 (ICLC HTL98008), its cisplatin-resistant variant A2780cisR (ECACC 93112517), colon carcinoma HCT 116 (ECACC 91091005), breast invasive ductal carcinoma MCF7 (ECACC 86012803), embryonal carcinoma NTERA-2 clone D1 (also known as NT2/D1, ICLC HTL97025), and lung adenocarcinoma A549 (ICLC HTL03001). Furthermore, a cell line derived from the pleural effusion of a patient with untreated malignant pleural mesothelioma (MPM) was added to the panel, namely, MM98 (sarcomatoid phenotype). Commercial cells were purchased from the European Collection of Authenticated Cell Cultures (ECACC, UK) or the Interlab Cell Line Collection (ICLC, Genoa, Italy), while the MM98 cell line was obtained from the Pathology Unit of the National Hospital of Alessandria (Italy).
(§2) The following media were used to grow the cells: RPMI 1640 (for A2780, A2780cisR, NT2/D1, and A549 cells), DMEM (for MCF7 cells), DMEM supplemented with nonessential amino acids (for MM98 cells), and McCoy's 5A (for HCT 116 cells). All media contained L-glutamine (2 mM) and were added with penicillin (100 IU·mL^−1), streptomycin (100 mg·L^−1), and 10% heat inactivated FBS. To maintain resistance in A2780cisR cells, cisplatin (1 μM) was added to the medium every two passages.
(§3) Continuous treatments (CT) were carried out at 37°C in a humidified chamber with 5% CO2. Cisplatin was dissolved in a 0.9% w/v NaCl aqueous solution and brought to pH = 3 with HCl (final stock concentration 1 mM). The Pt(IV) Complexes 1–3 were dissolved in milliQ water (final stock concentration 5 mM) and stored at −20°C. The stock concentration was confirmed with inductively coupled plasma-mass spectrometry (ICP-MS) measurements. The mother solutions were diluted in a complete medium to the required concentration.
(§4) To assess the growth inhibition of the compounds under investigation, a cell viability test (i.e., the resazurin reduction assay) was used. […] At the end of the treatment (72 h), viability was evaluated with 100 μg·mL^−1 resazurin (Acros Chemicals, France) in a fresh medium for 1 h at 37°C, and the amount of the reduced product, resorufin, was measured by fluorescence (excitation λ = 535 nm, emission λ = 595 nm) with a Tecan Infinite F200Pro plate reader (Tecan, Austria). In each experiment, cells were challenged with drug candidates at different concentrations, and the final data were calculated from at least three replicates of the same experiment performed in triplicate. The fluorescence of 8 wells containing a medium without cells was used as a blank. Fluorescence data were normalized to 100% cell viability for nontreated cells. […]

[3] = test system: panel of human cancer cell lines; assay: Antiproliferative activity, panel of human cancer cell lines (average); assay type: cell-based; settings: 72 h; for IC50: wild cell panel
Description: as §1
The following media were used to grow the cells: RPMI 1640 (for A2780, A2780cisR, NT2/D1, and A549 cells), DMEM (for MCF7 cells), DMEM supplemented with nonessential amino acids (for MM98 cells), and McCoy's 5A (for HCT 116 cells). […]
as §4

[4] = test system: A2780; assay: Resazurin reduction cell viability assay, A2780; assay type: cell-based, human; settings: 72 h of treatment; mean ± sd
Description: as §1, §2, §3, §4

[5] = parameters: method as in PMID 32296997; settings: vs. Ag/AgCl, 3M KCl, glassy carbon electrode, scan rate 0.2 V·s^−1; cited from earlier work

Row | SMILES | ratio between AR 37°C and AR 4°C [1] | IC50 [2] | IC50 [3] | IC50 [4] | E p (reduction peak potential) [5] | accumulation ratio (AR) ([1]; 37°C) | potency, times higher than those of 1 and 3 ([3]; panel of human cancer cell lines)
1 | N.N.[Cl][Pt][Cl] [Cisplatin, (SP-4-2)-diamminedichloridoplatinum(II)] | increases hugely | 0.1 ± 0.04 µM | 2.72 µM | 0.48 ± 0.12 µM | – | – | –
2 | N.N.[OH][Pt]([OH])([Cl])[Cl] [Complex 1, (OC-6-33)-diamminedichloridodihydroxidoplatinum(IV)] | 3.2 | 1.44 ± 0.16 µM | – | 3.71 ± 1.93 µM | −0.815 V | – | –
3 | CC(=O)[O][Pt]([OH])([Cl])[Cl].N.N [Complex 2, (OC-6-44)-acetatodiamminedichloridohydroxidoplatinum(IV)] | increases hugely | 0.21 ± 0.08 µM | 2.91 µM | 0.16 ± 0.05 µM | −0.618 V | higher AR at 4 h than 1 and 3, even higher than that of cisplatin | 10–100 times
4 | CC(=O)[O][Pt]([NH2])([NH2])([Cl])([Cl])[O]C(C)=O [Complex 3, (OC-6-33)-diamminedichloridodiacetatoplatinum(IV)] | 3.6 | 4.3 ± 1.13 µM | – | 12.1 ± 5.2 µM | −0.486 V | – | –
